Experimental findings from patent US20230086703A1, “N-(4-(5-chloropyridin-3-yl)phenyl)-2-(2-(cyclopropanesulfonamido)pyrimidin-4-yl) butanamide derivatives and related compounds as human CTPS1 inhibitors for the treatment of proliferative diseases” (Step Pharma S.A.S., priority 2019, published 2023) are described below.

The target in one test is T1, human CTPS1 (Homo sapiens, UniProt P17812).
T1 construct: FLAG (with GG linker); His8 (with GG linker); purchased Proteros biostructures GmbH
T1 sequence (P17812 1-591): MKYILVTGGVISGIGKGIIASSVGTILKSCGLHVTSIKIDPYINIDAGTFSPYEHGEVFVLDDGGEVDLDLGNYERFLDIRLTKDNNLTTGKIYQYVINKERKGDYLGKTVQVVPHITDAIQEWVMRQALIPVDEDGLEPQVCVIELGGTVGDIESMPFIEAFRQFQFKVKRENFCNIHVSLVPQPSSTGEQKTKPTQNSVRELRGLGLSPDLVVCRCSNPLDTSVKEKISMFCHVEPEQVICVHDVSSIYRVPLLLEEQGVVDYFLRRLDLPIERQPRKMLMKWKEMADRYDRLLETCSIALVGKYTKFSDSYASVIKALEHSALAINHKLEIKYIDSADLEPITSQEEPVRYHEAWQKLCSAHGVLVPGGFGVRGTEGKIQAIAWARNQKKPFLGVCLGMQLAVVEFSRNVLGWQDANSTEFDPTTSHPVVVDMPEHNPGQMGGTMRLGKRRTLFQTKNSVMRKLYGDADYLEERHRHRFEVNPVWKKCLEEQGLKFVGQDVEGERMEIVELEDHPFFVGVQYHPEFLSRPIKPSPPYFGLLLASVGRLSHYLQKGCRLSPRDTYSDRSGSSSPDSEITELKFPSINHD
The test is described as follows: RapidFire/MS-based enzyme selectivity assay (human CTPS1 versus CTPS2), CTPS1 isoform. Type of test: biochemical. As to conditions: RapidFire/MS IC50 values of CTPS1 and CTPS2; Table 15. In a few lines:
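Full-length C-terminal FLAG-His-tagged CTPS1 (1-591) was preincubated 10 min at 25 °C with compound in HEPES pH 8.0 buffer with MgCl2, KCl, DTT and Tween-20. Reactions were started with a 2× mix of ATP 0.3 mM, UTP 0.2 mM, GTP 0.07 mM and L-glutamine 0.1 mM, and run in the linear phase at 25 °C. IC50 comes from the RapidFire-MS ratio of CTP to 13C9-15N3-CTP.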
Consider `CCOc1cncc(-c2ccc(NC(=O)C(CC)c3ccnc(NS(=O)(=O)C4CC4)n3)cc2)n1` (stereo not shown) [P105, 2-(2-(cyclopropanesulfonamido)pyrimidin-4-yl)-N-(4-(6-ethoxypyrazin-2-yl)phenyl)butanamide], for which the “Selectivity (fold selectivity between CTPS1 and CTPS2)” value is recorded as “++ (>30-60 fold (++))”.

`CCOc1cncc(-c2ccc(NC(=O)C(F)(CC)c3ccnc(NS(C)(=O)=O)n3)nc2)n1` (stereo not shown) [P151, N-(5-(6-ethoxypyrazin-2-yl)pyridin-2-yl)-2-fluoro-2-(2-(methylsulfonamido)pyrimidin-4-yl)butanamide]: the “Selectivity (fold selectivity between CTPS1 and CTPS2)” value is “+++ (>60 fold (+++))”.

Take `CCOc1cncc(-c2ccc(C(=O)NC(CC)c3ccnc(NS(=O)(=O)C4CC4)n3)c(F)c2)n1` (stereo not shown) [P216, N-(1-(2-(cyclopropanesulfonamido)pyrimidin-4-yl)propyl)-4-(6-ethoxypyrazin-2-yl)-2-fluorobenzamide]: the “Selectivity (fold selectivity between CTPS1 and CTPS2)” value was “+++ (>60 fold (+++))”.

Take `CCOc1cncc(-c2ccc(NC(=O)C(CC)c3cccc(NS(=O)(=O)C4CC4)n3)cc2)n1` (stereo not shown) [P191, 2-(6-(cyclopropanesulfonamido)pyridin-2-yl)-N-(4-(6-ethoxypyrazin-2-yl)phenyl)butanamide]: the “Selectivity (fold selectivity between CTPS1 and CTPS2)” value is recorded as “++ (>30-60 fold (++))”.

`CCOc1cncc(-c2ccc(NC(=O)C(CCOC)c3ccnc(NS(=O)(=O)C4CC4)n3)c(F)c2)n1` (stereo not shown) [P146, 2-(2-(cyclopropanesulfonamido)pyrimidin-4-yl)-N-(4-(6-ethoxypyrazin-2-yl)-2-fluorophenyl)-4-methoxybutanamide]: the “Selectivity (fold selectivity between CTPS1 and CTPS2)” value is “+++ (>60 fold (+++))”.

As for `CCOc1cncc(-c2ccc(NC(=O)Cc3ccnc(NS(=O)(=O)C4CC4)n3)cc2)n1` [P18, 2-(2-(cyclopropanesulfonamido)pyrimidin-4-yl)-N-(4-(6-ethoxypyrazin-2-yl)phenyl)acetamide], the “Selectivity (fold selectivity between CTPS1 and CTPS2)” value was “++ (>30-60 fold (++))”.

Regarding `CCC(C(=O)Nc1ccc(-c2cncc(OC)n2)cc1F)c1ccnc(NS(=O)(=O)C2CC2)n1` (stereo not shown) [P95, 2-(2-(cyclopropanesulfonamido)pyrimidin-4-yl)-N-(2-fluoro-4-(6-methoxypyrazin-2-yl)phenyl)butanamide], the “Selectivity (fold selectivity between CTPS1 and CTPS2)” value is “+ (2-30 fold (+))”.

Regarding `CCC(C(=O)Nc1ccc(-c2cncc(OCC(F)(F)F)n2)cc1)c1ccnc(NS(=O)(=O)C2CC2)n1` (stereo not shown) [P108, 2-(2-(cyclopropanesulfonamido)pyrimidin-4-yl)-N-(4-(9-(2,2,2-trifluoroethoxy)pyrazin-2-yl)phenyl)butanamide], the “Selectivity (fold selectivity between CTPS1 and CTPS2)” value is “+++ (>60 fold (+++))”.

For `CCOc1cncc(-c2ccc(NC(=O)C(C)(OC)c3cncc(NS(=O)(=O)C4CC4)n3)nc2)n1` (single isomer, unassigned) [P205a, 2-(6-(cyclopropanesulfonamido)pyrazin-2-yl)-N-(5-(6-ethoxypyrazin-2-yl)pyridin-2-yl)-2-methoxypropanamide], the “Selectivity (fold selectivity between CTPS1 and CTPS2)” value is listed as “+++ (>60 fold (+++))”.

As to `CCOc1cncc(-c2ccc(NC(=O)C(C)(C)c3ccnc(NS(=O)(=O)C4CC4)n3)c(C#N)c2)n1` [P34, N-(2-cyano-4-(6-ethoxypyrazin-2-yl)phenyl)-2-(2-(cyclopropanesulfonamido)pyrimidin-4-yl)-2-methylpropanamide], the “Selectivity (fold selectivity between CTPS1 and CTPS2)” value was “+ (2-30 fold (+))”.

With `CC(C)Oc1cncc(-c2ccc(NC(=O)C(C)(C)c3ccnc(NS(=O)(=O)C4CC4)n3)c(F)c2)n1` [P39], the “Selectivity (fold selectivity between CTPS1 and CTPS2)” value is reported as “+ (2-30 fold (+))”.

For the compound `CCOc1cncc(-c2ccc(NC(=O)C(CC)c3cccc(NS(=O)(=O)C4CC4)n3)nc2)n1` (stereo not shown) [P188, 2-(6-(cyclopropanesulfonamido)pyridin-2-yl)-N-(5-(6-ethoxypyrazin-2-yl)pyridin-2-yl)butanamide], the “Selectivity (fold selectivity between CTPS1 and CTPS2)” value is given as “++ (>30-60 fold (++))”.

For `CCOc1cncc(-c2ccc(NC(=O)C(C)(C)c3ccnc(NS(=O)(=O)CC)n3)cc2)n1` [P74, N-(4-(6-ethoxypyrazin-2-yl)phenyl)-2-(2-(ethylsulfonamido)pyrimidin-4-yl)-2-methylpropanamide], the “Selectivity (fold selectivity between CTPS1 and CTPS2)” value is given as “++ (>30-60 fold (++))”.

As to `CCOc1cncc(-c2ccc(NC(=O)C(CC)c3ccnc(NS(=O)(=O)C4CC4)n3)nc2)n1` (stereo not shown) [P88, 2-(2-(cyclopropanesulfonamido)pyrimidin-4-yl)-N-(5-(6-ethoxypyrazin-2-yl)pyridin-2-yl)butanamide], the “Selectivity (fold selectivity between CTPS1 and CTPS2)” value is on record as “+++ (>60 fold (+++))”.

The same test, now with this note: Table 16, human CTPS1 over human CTPS2, RapidFire/MS IC50 values.
Turning to `CC(C)(NC(=O)c1ccc(-c2cncc(C(F)(F)F)n2)cc1)c1csc(NS(=O)(=O)C2CC2)n1` [R51, N-(2-(2-(cyclopropanesulfon-amido)thiazol-4-yl)propan-2-yl)-4-(6-(trifluoromethyl)pyrazin-2-yl)benzamide], the “Selectivity (fold selectivity between CTPS1 and CTPS2)” value is “++ (>30-60 fold (++))”.

As for `COCCC(NC(=O)c1ccc(-c2cncc(C(F)(F)F)n2)cc1F)c1csc(NS(=O)(=O)C2CC2)n1` (stereo not shown) [R87, N-(1-(2-(cyclopropanesulfon-amido)thiazol-4-yl)-3-methoxypropyl)-2-fluoro-4-(6-(trifluoromethyl)pyrazin-2-yl)benzamide], the “Selectivity (fold selectivity between CTPS1 and CTPS2)” value is “++ (>30-60 fold (++))”.

With `CCOc1cncc(-c2ccc(C(=O)NC(CCOC)c3csc(NS(=O)(=O)C4CC4)n3)c(F)c2)n1` (single isomer, unassigned) [R93, N-(1-(2-(cyclopropanesulfon-amido)thiazol-4-yl)-3-methoxypropyl)-4-(6-ethoxypyrazin-2-yl)-2-fluorobenzamide], the “Selectivity (fold selectivity between CTPS1 and CTPS2)” value is “+++ (>60 fold (+++))”.

For the compound `CCOc1cncc(-c2ccc(C(=O)NC(C)(C)c3csc(NS(=O)(=O)C4CC4)n3)c(OC)c2)n1` [R7, N-(2-(2-(cyclopropanesulfonamido)thiazol-4-yl)propan-2-yl)-4-(6-ethoxypyrazin-2-yl)-2-methoxybenzamide], the “Selectivity (fold selectivity between CTPS1 and CTPS2)” value is “++ (>30-60 fold (++))”.

`CCOc1cncc(-c2ccc(C(=O)NC(CCOC)c3csc(NS(=O)(=O)C4CC4)n3)cc2)n1` (stereo not shown) [R90, N-(1-(2-(cyclopropanesulfon-amido)thiazol-4-yl)-3-methoxypropyl)-4-(6-ethoxy-pyrazin-2-yl)benzamide]: the “Selectivity (fold selectivity between CTPS1 and CTPS2)” value is “++ (>30-60 fold (++))”.

In the case of `CC(C)Oc1cncc(-c2ccc(C(=O)NC(C)(C)c3csc(NS(=O)(=O)C4CC4)n3)c(F)c2)n1` [R43, N-(2-(2-(cyclopropanesulfonamido)thiazol-4-yl)propan-2-yl)-2-fluoro-4-(6-isopropoxypyrazin-2-yl)benzamide], the “Selectivity (fold selectivity between CTPS1 and CTPS2)” value was “++ (>30-60 fold (++))”.

Turning to `Cc1cc(-c2cncc(C(F)(F)F)n2)ccc1C(=O)NC1(c2csc(NS(=O)(=O)C3CC3)n2)CC1` [R83, N-(1-(2-(cyclopropanesulfon-amido)thiazol-4-yl)cyclopropyl)-2-methyl-4-(6-(trifluoromethyl)pyrazin-2-yl)benzamide], the “Selectivity (fold selectivity between CTPS1 and CTPS2)” value is given as “+++ (>60 fold (+++))”.

Take `CCOc1cncc(-c2ccc(C(=O)NC(C)(C)c3csc(NS(=O)(=O)C4CC4)n3)cc2)n1` [R55, N-(2-(2-(cyclopropanesulfon-amido)thiazol-4-yl)propan-2-yl)-4-(6-ethoxypyrazin-2-yl)benzamide]: the “Selectivity (fold selectivity between CTPS1 and CTPS2)” value is reported as “+++ (>60 fold (+++))”.
